According to US11946094B2, “Combination therapies and methods of use thereof” (Augusta University Research Institute, Inc., priority 2017, dated 2024):

test system: OVCAR-8 cells; assay: Drug-siRNA combination screen: 346-compound anticancer library at 100 nM, CCK-8 viability; details: not given

Compound | Score (sum of observed SD values for 18 genes)
Cc1ccc(C(=O)Nc2ccc(CN3CCN(C)CC3)c(C(F)(F)F)c2)cc1C#Cc1cnc2cccnn12 [Ponatinib] | −28.62 SD

same assay, conditions: OVCAR-8; drug 100 nM plus siRNA knockdown of each of 18 genes; distance VAB−VA×VB in SD; single gene contributes at most +5 / −5; negative = synergy, positive = antagonism

Compound | Score (sum of observed SD values for 18 genes)
CC(=O)c1c(C)c2cnc(Nc3ccc(N4CCNCC4)cn3)nc2n(C2CCCC2)c1=O [Palbociclib] | −30.45 SD
COc1ccc(COc2cc3oc(=O)c4cc(C(C)O)ccc4c3cc2OC)cc1 (stereo not drawn) [Palomid 529] | 11.53 SD
NCCC(O)(P(=O)(O)O)P(=O)(O)O [Pamidronate Disodium] | −2.39 SD
CCOc1cc2ncc(C#N)c(Nc3ccc(F)c(Cl)c3)c2cc1NC(=O)/C=C/CN(C)C [Pelitinib] | -54.75 SD
O=C(CCc1ccc(O)cc1)c1c(O)cc(O)cc1O [Phloretin] | −16.21 SD
CCc1ccc(CCOc2ccc(CC3SC(=O)NC3=O)cc2)nc1 (stereo not drawn) [Pioglitazone] | −37.6 SD
Nc1cccc2c1C(=O)N(C1CCC(=O)NC1=O)C2=O (stereo not drawn) [Pomalidomide] | −3.4 SD
CCCCc1nc2cc(/C=C/C(=O)NO)ccc2n1CCN(CC)CC [Pracinostat] | −43.48 SD
C[C@]12C=CC(=O)C=C1CC[C@@H]1[C@@H]2C(=O)C[C@@]2(C)[C@H]1CC[C@]2(O)C(=O)CO [Prednisone] | −20.64 SD
O=c1c(O)c(-c2ccc(O)c(O)c2)oc2cc(O)cc(O)c12 [Quercetin] | −5.63 SD
CC(C)(C)c1cc(NC(=O)Nc2ccc(-c3cn4c(n3)sc3cc(OCCN5CCOCC5)ccc34)cc2)no1 [Quizartinib] | −12.85 SD
COc1cc(Nc2ncc(F)c(Nc3ccc4c(n3)NC(=O)C(C)(C)O4)n2)cc(OC)c1OC [R406] | −28.54 SD
O=C(O)C(Cc1c[nH]c2ccccc12)N1C(=O)c2ccccc2C1=O (stereo not drawn) [RG108] | −0.52 SD
Cc1nc2ccc(CN(C)c3ccc(C(=O)N[C@@H](CCC(=O)O)C(=O)O)s3)cc2c(=O)[nH]1 [Raltitrexed] | 44.53 SD
COc1ccccc1OCC(O)CN1CCN(CC(=O)Nc2c(C)cccc2C)CC1 (stereo not drawn) [Ranolazine] | −11.08 SD
CNC(=O)c1cc(Oc2ccc(NC(=O)Nc3cc(C(C)(C)C)nn3-c3ccc4ncccc4c3)c(F)c2)ccn1 [Rebastinib] | 17.66 SD
CNC(=O)c1cc(Oc2ccc(NC(=O)Nc3ccc(Cl)c(C(F)(F)F)c3)c(F)c2)ccn1 [Regorafinib] | 3.75 SD
COc1cc(OC)c(/C=C/S(=O)(=O)Cc2ccc(OC)c(NCC(=O)O)c2)c(OC)c1 [Rigosertib] | 6.43 SD
CN(CCOc1ccc(CC2SC(=O)NC2=O)cc1)c1ccccn1 (stereo not drawn) [Rosiglitazone] | −27.32 SD
CNCc1ccc(-c2[nH]c3cc(F)cc4c3c2CCNC4=O)cc1 [Rucaparib] | −3.34 SD
Cn1cc(C2=C(c3ccc(Cl)cc3Cl)C(=O)NC2=O)c2ccccc21 [SB216763] | −11.62 SD
CN(C)CCOc1ccc(-c2nc(-c3ccncc3)c(-c3ccc4c(c3)CC/C4=N\O)[nH]2)cc1 [SB590885] | 27.34 SD
C[S+]([O-])c1ccc(-c2nc(-c3ccc(F)cc3)c(-c3ccncc3)[nH]2)cc1 (stereo not drawn) [SB 203580] | −40.85 SD
NC(=O)c1ccc(-c2nc(-c3ccccn3)c(-c3ccc4c(c3)OCO4)[nH]2)cc1 [SB 431542] | −30.82 SD
Cc1cccc(-c2[nH]c(C(C)(C)C)nc2-c2ccc3nccnc3c2)n1 [SB 525334] | −32.05 SD

same assay, conditions: OVCAR-8; drug 100 nM; panel of 18 siRNA knockdowns

Compound | synergy / antagonism of drug with gene knockdowns, in words
CCCCc1nc2cc(/C=C/C(=O)NO)ccc2n1CCN(CC)CC [Pracinostat] | mostly synergistic
CN(C)CCOc1ccc(-c2nc(-c3ccncc3)c(-c3ccc4c(c3)CC/C4=N\O)[nH]2)cc1 [SB590885] | antagonistic with multiple genes

same assay, conditions: OVCAR-8; drug 100 nM; siRNA knockdown

Compound | number of genes (of 18) whose knockdown synergizes with the drug
CCCCc1nc2cc(/C=C/C(=O)NO)ccc2n1CCN(CC)CC [Pracinostat] | 11 genes
C[S+]([O-])c1ccc(-c2nc(-c3ccc(F)cc3)c(-c3ccncc3)[nH]2)cc1 (stereo not drawn) [SB 203580] | 9 genes
